Measurements: patent publication US20260335468A1, “MOLECULAR RADIOAFTERGLOW PROBES FOR CANCER RADIODYNAMIC THERANOSTICS” (NANYANG TECHNOLOGICAL UNIVERSITY, priority 2023, published 2026)

Experiments:
[1] = Radio afterglow spectra, intensity and half-life of luminophores in PBS after X-ray; type: physicochemical; conditions: for radio afterglow brightness / intensity: X-ray irradiation; for radio afterglow intensity increase versus iodine-free counterpart: 100 μM, PBS pH 7.4, 50% DMSO, X-ray 5 mGy
Protocol: The optical properties of DPAs and IDPAs were investigated in an aqueous solution (FIGS. 2 and 3). […] Their half-lives ranged from 9.2 to 196.8 min (FIG. 4e).
DPAs or IDPAs (100 μM) in 0.01 M PBS (pH 7.4, 50% DMSO) were irradiated by X-rays at 250 μGy s^−1 for 20 s (total, 5 mGy) under the specific setup parameter of 10 kV and 75 μA. Then, the radio afterglow signal was collected with an IVIS imaging system under the bioluminescence mode with an open filter and an acquisition time of 60 s. Finally, the radio afterglow intensities were quantified by a region-of-interest analysis using Living Image 4.3 software. In addition, the radio afterglow spectra of the candidates were acquired under the same test conditions with specific emission filters, and time courses of the signal were recorded as a function of time.

[2] = ^1O2 generation upon X-ray irradiation (ESR, TEMP trap); type: physicochemical; conditions: for ^1O2 generation / radiodynamic activity: X-ray irradiation, ESR
Protocol: To study ^1O2 generation, a mixture of DPAS or IDPAS (100 M) and TEMP (10 mM) in PBS (0.01 M, pH 7.4, 50% DMSO) was irradiated by X-rays at 2 Gy (100 mGy s^−1 for 20 s) or 5 mGy (250 μGy s^−1 for 20 s). The ESR signals of the mixture were recorded with a Bruker A300 instrument. The ESR signal of the free radical 2,2,6,6-tetramethyl-1-piperidinyloxyl (g=2.0060) was generated by the reaction of ^1O2 with TEMP. The ^1O2 quencher NaN3 (1 mM) was added to validate the afterglow mechanism of IDPASu. Additionally, other commercially available radio sensitizers (such as acridine orange, hematoporphyrin and verteporfin) were measured and compared. The procedure of block depths was similar to that of the tissue penetration depth study and the ^1O2 generation for different depth tissues was measured. The ESR signal changes of MRAP in the absence or presence of CatB were measured in a similar way. The ESR signals of 2,2,6,6-tetramethyl-1-piperidinyloxyl from the reaction of ^1O2 with TEMP were plotted as a function of the concentration of ^1O2, which was generated by the addition of NaOCl to H2O2. This generated the standard curve between the ESR intensity and ^1O2 concentration.

| Compound | radio afterglow brightness / intensity [1] | ^1O2 generation / radiodynamic activity [2] | ^1O2 generation versus that of IDPAs ([2]; X-ray 5 mGy) | radio afterglow intensity increase versus iodine-free counterpart [1] |
| --- | --- | --- | --- | --- |
| COC(=C1C2CC3CC(C2)CC1C3)c1c(/C=C/C2=CC(=C(C#N)C#N)c3ccccc3O2)cc(I)c(O)c1I [DIDPAO] | extremely low | slightly increase |  |  |
| COC(=C1C2CC3CC(C2)CC1C3)c1c(/C=C/C2=CC(=C(C#N)C#N)c3ccccc3S2)cc(I)c(O)c1I [DIDPAS] | extremely low | slightly increase | ~ 1.2 fold |  |
| COC(=C1C2CC3CC(C2)CC1C3)c1cc(O)ccc1/C=C/C1=CC(=C(C#N)C#N)c2ccccc2S1 [DPASu, DBTP-phenoxy-adamantylidene] |  | generation of ^1O2 |  |  |
| COC(=C1C2CC3CC(C2)CC1C3)c1cc(O)c(I)cc1/C=C/C1=CC(=C(C#N)C#N)c2ccccc2O1 [IDPAO] |  |  |  | ~ 1.62 fold |
| COC(=C1C2CC3CC(C2)CC1C3)c1cc(O)c(I)cc1/C=C/C1=CC(=C(C#N)C#N)c2ccccc2[Se]1 [IDPASe] |  |  |  | 6.65 fold |
